Measured values reported in patent US3980646A, “3-Methylpyrazole-5-carboxylates and medicaments containing these compounds” (Wulfing; Johann A., priority 1974, dated 1976).
Values joined by “and” are separate entries in the source; they are usually repeats but may differ in a detail not shown here. Equal entries are not always repeated.

Tests used:
Triglycerides = assay: triglycerides in hyperlipacidaemic rats treated with octylphenol polyethylene glycolether; format: in vivo, Male rats (Wistar)
Description: Male rats, starve for 22 hours, ether narcosis, heart puncture
Dose: 1000 mg/kg of octylphenyl polyethylene glycolether i.v.
6 hours before blood removal
Dose: 100 mg/kg of 7-[3-(N-methyl-N-2-hydroxyethyl)-amino-2-
hydroxypropyl]-1,3-dimethylxanthine-3-methylpyrazole-5-
carboxylate by esophagus probe, 6 hours, 4 hours and
2 hours before blood removal

[1] = general pharmacological effects (lipolysis inhibition, lipid lowering, tachyphylaxis, toxicity); format: in vivo
serum triglycerides (TG) = assay: influence on the serum triglycerides (TG) in normal animals; format: in vivo, Rats (Wistar); details: for TG: starve for 5 hours; for TG, mean (x): 1 hour
Description: Rats, starve for 5 hours
40 mg/kg body weight of active principle according to
the invention, oral by esophagus probe 1 hour before
12 mg/kg body weight of 3-methylpyrazole-5-carboxylic
acid, equim. dosage, 1 hour before removal of blood
Dose: 10 mg/kg body weight of active principle according to the
invention, oral by esophagus probe 1 hour before blood removal
Dose: 3 mg/kg body weight of 3-methylpyrazole-5-carboxylic acid,
equim. dosage, oral by esophagus probe 1 hour before

serum fatty acids (FFS) = assay: influence on the serum fatty acids (FFS) of hyperlipacidaemic rats, alcohol lipolysis; format: in vivo, rats (Wistar); details: alcohol 2 g/kg i.v., 100 mg/kg oral 3 hours before blood removal
Description: (§1) Investigations on a total of 260 Wistarrats were conducted with 7-[3-(N-methyl-N-2-hydroxyethyl)-amino-2-hydroxypropyl]-1,3-dimethylxanthine-3-methylpyrazole-5-carboxylate.
rats, starve for 5 hours,
Dose: alcohol 2g/kg body weight in 20% solution i.v.,
Dose: active principle according to the invention
100 mg/kg body weight, oral by esophagus probe
3 hours before blood removal

cholesterol = assay: assaying for cholesterol in starved rats; format: in vivo, Male Rats (Wistar)
Description: Assaying for cholesterol
Male Rats, starve for 18 hours, ether narcosis, heart puncture
100 mg/kg of 7-[3-(N-methyl-N-

free fatty acids (FFS) [2] = assay: influence on the free fatty acids (FFS) after repeated application once daily for 4 days; format: in vivo, Rats male (Wistar); details: for free fatty acids (FFS): individual animals; for free fatty acids (FFS) / free fatty acids (FFS), mean (x10): 4 × appl. 50 mg/kg p.o.; for free fatty acids (FFS), mean (x10): control 1.27, p<0.001
Description: Rats male, repeated application once daily for 4 days,
on the 4th day groups of 10 animals were killed at
intervals of 30 minutes, 1 hour and 2 hours after the
last application by ether narcosis and heart puncture.
10 controls were given esophagus probe, animals starved
for 17 hours before killing (cf. FIG. 4)
7-[3-(N-methyl-2-hydroxyethyl)-amino-2-
hydroxypropyl]-1,3-dimethylxanthine-3-
methylpyrazole-5-carboxylate 50 mg/kg peroral
3-methylpyrazole-5-carboxylic acid (3-MPC)
eq./kg 15 mg/kg peroral

mice = assay: LD50 in mice; format: in vivo
free fatty acids (FFS) [3] = assay: influence on the free fatty acids (FFS) in starved (hyperlipacidaemic) animals, hunger lipolysis; format: in vivo, rats (Wistar); details: 1 hour
Description: as §1
Examination of the influence of 7-[3-(N-methyl-N-2-hydroxy-
ethyl)-amino-2-hydroxypropyl]-1,3-dimethylxanthine-3-methyl-
pyrazole-5-carboxylate on the serum fatty acids (FFS) of
Male Rats, starve for 17 hours
Dose: 100 mg/kg body weight, oral by esophagus probe,
Blood removal: 1 hour after application
pyrazole-5-carboxylate on the free fatty acids (FFS) in
starved animals 1 hour after application
Comparative examinations of the influence of 7-[3-(N-methyl-
carboxylic acid on the free fatty acids (FFS) in starved
animals 1 hour after application
pyrazole-5-carboxylic acid on the free fatty acids (FFS)
in starved animals 6 hours after application

Structure (SMILES): CN(CCO)CC(O)Cn1cnc2c1c(=O)n(C)c(=O)n2C.Cc1cc(C(=O)O)[nH]n1 (stereo not drawn) [7-[3-(N-methyl-N-2-hydroxyethyl)-amino-2-hydroxypropyl]-1,3-dimethylxanthine-3-methylpyrazole-5-carboxylate]
- triglyceride level (Triglycerides; hyperlipacidaemic rats, result in words): significant reduction in the triglyceride level
- TG (Triglycerides; individual animals, octylphenol polyethylene glycolether 1000 mg/kg i.v. 6 hours before, 100 mg/kg per os 6, 4 and 2 hours before killing): 644.4 mg % and 687.4 mg % and 701.6 mg % and 707.4 mg % and 610.0 mg % and 703.1 mg % and 695.9 mg % and 711.7 mg %
- TG, mean (x) (Triglycerides; mean, octylphenol polyethylene glycolether 1000 mg/kg i.v., 100 mg/kg per os 6, 4 and 2 hours before killing, control x = 777.2, p<0.001): 687.0 mg %
- influence on free fatty acids (FFS) ([1]; doses down to 2 mg/kg, normal and hyperlipacidaemic rats (starved animals, alcohol animals)): significantly influences the free fatty acids (FFS)
- effect (lipolysis inhibition, reducing triglyceride and cholesterol level, low toxicity) ([1]; result in words): particularly marked effect
- TG (serum triglycerides (TG); Table 7, individual animals, 40 mg/kg oral 1 hour before removal of blood, 40 mg/kg): 71.6 mg % and 22.9 mg % and 15.8 mg % and 18.6 mg % and 41.5 mg % and 40.1 mg % and 58.7 mg % and 32.9 mg % and 45.8 mg %
- TG, mean (x) (serum triglycerides (TG); Table 7, mean, 40 mg/kg oral, control x = 66.4, p<0.0027>Ko): 36.3 mg %
- TG (serum triglycerides (TG); Table 8, individual animals, 10 mg/kg oral 1 hour before blood removal, 10 mg/kg): 48.7 mg % and 54.4 mg % and 83.1 mg % and 55.8 mg % and 74.4 mg % and 81.6 mg % and 51.5 mg % and 40.1 mg %
- TG, mean (x) (serum triglycerides (TG); Table 8, mean, 10 mg/kg oral, control x = 86.3, p<0.05>Ko): 59.8 mg %
- serum triglyceride level of normal animals (serum triglycerides (TG); doses down to 10 mg/kg, result in words): significantly reduces the serum triglyceride level
- FFS (serum fatty acids (FFS); individual animals, 100 mg/kg): 0.45 μval/ml and 0.58 μval/ml and 0.59 μval/ml and 0.60 μval/ml and 0.52 μval/ml and 0.56 μval/ml and 0.43 μval/ml and 0.66 μval/ml and 0.67 μval/ml and 0.53 μval/ml
- FFS, mean (φ) (serum fatty acids (FFS); mean, control φ 0.64, alcohol series φ 0.79, p<0.001): 0.56 μval/ml
- cholesterol level of starved rats (cholesterol; 100 mg/kg perorally, result in words): significantly reduces the cholesterol level
- Cholesterol (cholesterol; individual animals, starve for 18 hours, 100 mg/kg per os 1 hour before killing, 100 mg/kg): 78.45 mg % and 50.86 mg % and 57.76 mg % and 47.71 mg % and 62.07 mg % and 48.28 mg % and 65.52 mg % and 56.03 mg % and 38.79 mg %
- Cholesterol, mean (x10) (cholesterol; mean of 10, starve for 18 hours, 100 mg/kg per os 1 hour before killing, control 75.69, p<0.001): 57.07 mg %
- free fatty acids (FFS) (free fatty acids (FFS) [2]; 30' after last application): 0.72 μval/ml plasma and 0.94 μval/ml plasma and 0.69 μval/ml plasma and 0.83 μval/ml plasma and 1.36 μval/ml plasma and 0.89 μval/ml plasma and 0.66 μval/ml plasma and 0.67 μval/ml plasma and 0.86 μval/ml plasma and 1.07 μval/ml plasma
- free fatty acids (FFS) (free fatty acids (FFS) [2]; 1 h after last appl.): 0.75 μval/ml plasma and 0.42 μval/ml plasma and 0.45 μval/ml plasma and 0.56 μval/ml plasma and 0.67 μval/ml plasma and 0.54 μval/ml plasma and 0.86 μval/ml plasma and 0.63 μval/ml plasma and 0.98 μval/ml plasma and 0.89 μval/ml plasma
- free fatty acids (FFS) (free fatty acids (FFS) [2]; 2 h after last appl.): 0.79 μval/ml plasma and 0.58 μval/ml plasma and 0.94 μval/ml plasma and 0.80 μval/ml plasma and 1.10 μval/ml plasma and 1.07 μval/ml plasma and 0.84 μval/ml plasma and 0.90 μval/ml plasma and 0.97 μval/ml plasma and 0.83 μval/ml plasma
- free fatty acids (FFS), mean (x10) (free fatty acids (FFS) [2]; 30' after last application): 0.87 μval/ml plasma
- free fatty acids (FFS), mean (x10) (free fatty acids (FFS) [2]; 1 h after last appl.): 0.68 μval/ml plasma
- free fatty acids (FFS), mean (x10) (free fatty acids (FFS) [2]; 2 h after last appl.): 0.88 μval/ml plasma
- weakening of effect on free fatty acid content by pretreatment (free fatty acids (FFS) [2]; repeated application, result in words): does not have this effect
- LD50 (mice; i.v.): 540 mg/kg
- LD50 (mice; per oral): more than 1000 mg/kg
- FFS (free fatty acids (FFS) [3]; Table 2, individual animals, male rats, starve for 17 hours, 100 mg/kg oral, 100 mg/kg): 0.29 μval/ml and 0.34 μval/ml and 0.54 μval/ml and 0.47 μval/ml and 0.67 μval/ml and 0.46 μval/ml and 0.44 μval/ml and 0.43 μval/ml and 0.39 μval/ml and 0.48 μval/ml and 0.51 μval/ml and 0.45 μval/ml
- FFS, mean (φ) (free fatty acids (FFS) [3]; Table 2, mean, male rats, starve for 17 hours, 100 mg/kg oral, control φ 0.91, p<0.001): 0.46 μval/ml
- FFS (free fatty acids (FFS) [3]; Table 4 dose-effect, starved animals, 2.0 mg/kg, n 10, control 0.87, ***p<0.001): 0.51 μval/ml
- FFS (free fatty acids (FFS) [3]; Table 4 dose-effect, starved animals, 2.5 mg/kg, n 13, control 0.86): 0.50 μval/ml
- FFS (free fatty acids (FFS) [3]; Table 4 dose-effect, starved animals, 5 mg/kg, n 5, control 0.83): 0.43 μval/ml
- FFS (free fatty acids (FFS) [3]; Table 4 dose-effect, starved animals, 10 mg/kg, n 10, control 0.97): 0.53 μval/ml
